Reference: US20160158381A1, “NOVEL NANOLIPOSOMES AND THEIR USE FOR THE TREATMENT OF AMYLOID PROTEIN DISEASES” (DEPARTMENT OF VETERANS AFFAIRS, TECHNOLOGY TRANSFER PROGRAM, priority 2013, published 2016)
“Also recorded” adds a separate entry of the source.

How the values were obtained:
Assay type in all cases: cell-based
[1] = system: human ex-vivo adipose arterioles exposed to LC; assay: Arteriole vasoreactivity after LC exposure with or without NL; conditions: LC+NL co-treated with L-NAME 5 mmol
Method: 9 male subjects (64±3 years old) without AL/diabetes/vascular disease undergoing routine abdominal surgery donated subcutaneous adipose tissue obtained by surgeons. Arterioles (˜[…]) were isolated, cannulated and pressurized (60 mmHg). Baseline/control vasoreactivity was performed following preconstriction with endothelin-1 (60% baseline diameter) and successive administration of acetylcholine (10-9-10-4M) to measure endothelium-dependent dilation and papaverine (10^-4M) to measure smooth-muscle dependent dilation (videomicrometer). After washing, vessels were exposed to LC (20 μg/mL, physiologic concentration of circulating LC in patients) with or without NL (1:10 LC:NL mass ratio) for 1 hour and a second vasoreactivity response performed. In additional arterioles, LC+NL were co-treated with L-NG-nitroarginine methyl ester (L-NAME, 5 mmol, Sigma-Aldrich).
Data is expressed as means±standard error of means. Baseline control and post-treatment dilator response were compared using paired Student's t-test. Overall acetylcholine dilator response was analyzed by deriving the log effective concentration 50% (log EC50) using nonlinear regression and variable slope and least squares fit. For group analyses, one-way or two way analysis of variance with Bonferroni post-test were utilized (GraphPad Prism 5.0, San Diego Calif.).

[2] = system: human abdominal subcutaneous adipose arterioles exposed to Aβ42; assay: Arteriole vasoreactivity after Aβ42 exposure with or without nanoliposomes; conditions: for dilator responses to acetylcholine and papaverine (endothelial function): Aβ42 2 μM with or without nanoliposomes (1:10 Aβ:NLPA mass ratio), one hour
Method: Human abdominal subcutaneous arterioles were isolated from subjects without vascular disease, pressurized and constricted with endothelin-1. Baseline (control) dilation response was measured following acetylcholine (10_9-10-4M) and papaverine (10^-4M) exposure; after washing, arterioles were exposed to Aβ42 (2 μM)±nanoliposomes (NLPA, 70% cholesterol, 25% phosphatidylcholine, 5% phosphatidic acid, 1:10 Aβ:NLPA mass ratio) and dilator response was measured.

[3] = system: Human umbilical vein endothelial cells (HUVECs); assay: Endothelial cell nitric oxide production (DAF-2 diacetate fluorescence); conditions: 1 hour exposure, acetylcholine 10^-4M at 45 minutes
Method: Human umbilical vein endothelial cells (HUVECs) were exposed to Aβ42±NLPA or control for 1-hour, acetylcholine (10^-4M) was administered at 45 minutes and nitric oxide (NO production) was measured using DAF-2 diacetate fluorescence (1 hour compared to baseline fluorescence).

[4] = system: human ex-vivo adipose arterioles exposed to soluble amyloid proteins (light chain); assay: Arteriole endothelial function after LC exposure with clusterin-incorporated nanoliposomes; conditions: separate experiments; nanoliposomes of cholesterol and phosphatidylcholine; co-treatment with light chain
Excerpt: Nanoliposomes were composed of cholesterol, phosphatidylcholine and stearyl triphenylphosphonium (STTP) and clusterin was incorporated by noncovalent means.

Compound: COC(=O)[C@@H](N)CCCNC(=N)N[N+](=O)[O-] [L-NAME, L-NG-nitroarginine methyl ester]
- effect of L-NAME on NL protective effect (dilator response) [1]: abolished NL protective effect; also recorded: Nanoliposome protective effect was reversed

Compound: Aβ42: Aβ42 peptide, one of the amyloid proteins involved in AD
- dilation to acetylcholine 10^−4M ([2]; Aβ42 2 μM with or without NLPA, 1:10 Aβ:NLPA mass ratio): 61.5±5.7%
- dilator responses to acetylcholine and papaverine (endothelial function) [2]: caused endothelial dysfunction
- dilator responses to acetylcholine and papaverine (endothelial function) ([2]; listed as Aβ): reduced
- NO production [3]: reduced endothelial cell NO gas production
- NO production ([3]; listed as Aβ): reduced

Compound: free clusterin: free clusterin without nanoliposome; clusterin is apolipoprotein J, a chaperone protein
- dilator response to acetylcholine versus baseline [4]: +3.1%
